Columns and labels:
[1] = target: Prothrombin (Homo sapiens, UniProt P00734); experiment: Binding affinity on Thrombin
[2] = target: T1, Trypsin II (Bos taurus, UniProt Q29463); experiment: Binding affinity on bovine pancreatic trypsin enzyme
T1 sequence (Q29463 whole entry): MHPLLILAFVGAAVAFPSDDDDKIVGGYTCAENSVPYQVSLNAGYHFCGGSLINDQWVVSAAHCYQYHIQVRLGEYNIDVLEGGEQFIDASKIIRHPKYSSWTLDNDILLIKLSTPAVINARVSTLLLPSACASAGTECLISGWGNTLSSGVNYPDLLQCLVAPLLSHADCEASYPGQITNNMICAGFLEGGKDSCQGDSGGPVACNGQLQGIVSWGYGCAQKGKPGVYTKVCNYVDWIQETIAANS

Row | SMILES | Ki [1] | Ki [2]
1 | O=C1[C@@H](NS(=O)(=O)c2cc3ncccc3s2)CCN1Cc1cc2cc[nH]cc-2n1 | > 4000 nM | > 2900 nM
2 | Nc1nccc2ccc(CN3CC[C@H](NS(=O)(=O)c4cc5ncccc5s4)C3=O)cc12 |  | > 2900 nM

— ChEMBL document CHEMBL1133625, “Crystal structures of human factor Xa complexed with potent inhibitors” (J Med Chem, 2000)
